Assay results: patent publication US20210163424A1, “ECO-FRIENDLY MATERIALS AND METHODS FOR RENEWABLE AND SUSTAINABLE APPLICATIONS IN MATERIAL CHEMISTRY” (NDSU RESEARCH FOUNDATION, priority 2016, published 2021)

Tests used:
[1] = Ground state acidity (pKa) from α-plot of UV-Vis spectra at various pH; type: physicochemical
Experimental: (§1) Thus pKa* is most commonly calculated from the difference in the S1 excited state 0-0 transition of the acid (EHA) and the conjugate base (EA−)(2c). In order to determine the excited state acidity of the vanillin analogs, the ground state acidity was determined. An α-plot was made, by taking the UV-Vis spectra of ortho-vanillin at various pH using NaOH and HCl as the base and acid respectively (5c). Both iso-vanillin and vanillin ground state acidities were literature reported. After obtaining the ground state acidity the excited state acidity (pKa*) was investigated. Fluorescence, phosphorescence and luminescence spectra were measured in different solvents. It was determined that none of the vanillin analogs fluoresced appreciably and therefore were all poor photoacids. […] Various substituted Grignard reagents were used to reduce the carbonyl to a tertiary alcohol therefore eliminating the carbonyl functionality and hindering inter-system crossing (FIG. 32).
(§2) The ground state and excited state acidities were determined. […] Derivatives 1a and 1b were handled in a similar fashion.

[2] = Excited state acidity / photoacidity (pKa*) from Foster cycle; type: physicochemical
Source text: Investigations commenced determining the extent or existence of excited state proton transfer, photoacidity (pKa*), of vanillin and its analogs ortho-vanillin and iso-vanillin. From the Foster cycle, pKa* is mathematically defined by the following equation,
=pKa*+pKa+(EA−−EHA)/2.3RT.^1 (1)
as §1, §2

COc1cccc(C(C)O)c1O (stereo not drawn) [1c]
pKa [1]: 8
pKa* [2]: 4.9

COc1cc(C(C)O)ccc1O (stereo not drawn) [1a]
pKa [1]: 9.8
pKa* [2]: 9.6

COc1ccc(C(C)O)cc1O (stereo not drawn) [1b]
pKa [1]: 9.8
pKa* [2]: 5.6
